The results in this text go back to patent US11236122B2, “Triterpene amine derivatives” (DFH THERAPEUTICS, priority 2018, dated 2022).

Structures can show the parent of a compound that is named as a salt.

One test deals with pNL4-3 SP1-V7A. Put plainly: CA-SP1 accumulation assay, SP1-V7A derivative. It is filed as cell-based, HIV-1. The note with it: HeLa or 293T cells; for % CA-SP1 Accumulation 10 nM SP1 V7A: 10 nM compound; for % CA-SP1 Accumulation 100 nM SP1 V7A: 100 nM compound. The procedure: (§1) Cell culture, plasmids and transfections. The MT-4 T-cell line was maintained in RPMI-1640 medium supplemented with 10% (vol/vol) fetal bovine serum (FBS), 2 mM glutamine, 100 U/mL penicillin and 100 μg/mL streptomycin at 37° C. in a humidified 5% CO2 atmosphere. HeLa and 293T cells were maintained in Dulbecco's modified Eagle's medium (DMEM) supplemented with 5% (vol/vol) FBS, 2 mM glutamine, 100 U/mL penicillin and 100 μg/mL streptomycin. Molecular clones used in this study were WT pNL4-3 and the derivative encoding a Val-to-Ala mutation at SP1 residue 7, referred to as SP1-V7A. The MT-4 T-cell line was transfected the DEAE/dextran procedure; HeLa and 293T cells were transfected with linear polyethylenimine (L-PEI) or Lipofectamine 2000 (Invitrogen) as recommended by the supplier.
(§2) CA-SP1 accumulation assay. For CA-SP1 accumulation assays, HeLa or 293T cells were transfected with WT pNL4-3 or the SP1-V7A derivative. At 24 h post-transfection, cells were starved in Met/Cys-free medium for 30 min and metabolically labeled with [^35S]Met/Cys-Pro-mix (Amersham) for 2-3 h. Maturation inhibitors were maintained in the cultures throughout the transfection and labeling period. Viruses were collected by ultracentrifugation at 99,000×g for 45-60 min. Virus pellets were resuspended in Triton X-100 lysis buffer [300 mM NaCl, 50 mM Tris-HCl (pH 7.5), 0.5% Triton X-100, 10 mM iodoacetamide, and protease inhibitor cocktail tablets (Roche)]. CA and CA-SP1 proteins were separated on 13.5-15% polyacrylamide gels by SDS-polyacrylamide gel electrophoresis, exposed to a phosphorimager plate (Fuji) and quantified by Quantity One software (Bio-Rad).

Another test has as its system WT pNL4-3. Put plainly: CA-SP1 accumulation assay, WT NL4-3. Format: cell-based, HIV-1. The note with it: HeLa or 293T cells; for % CA-SP1 Accumulation 10 nM NL4-3: 10 nM compound; for % CA-SP1 Accumulation 100 nM NL4-3: 100 nM compound. As for the experimental part: as §1, §2

Regarding `C=C(C)[C@@H]1CC[C@]2(CCNCCN3CCN(Cc4ccccn4)CC3)CC[C@]3(C)[C@H](CC[C@@H]4[C@@]5(C)CC[C@H](OC(=O)CC(C)(C)C(=O)O)C(C)(C)[C@@H]5CC[C@]43C)[C@@H]12` [Compound 51u, (3β)-17-[2-[[2-[4-(2-Pyridinylmethyl)piperazin-1-yl]ethyl]amino]ethyl]-28-norlup-20(29)-en-3-ol, 3-(1-Hydrogen 2,2-Dimethylbutanedioate)], the “% CA-SP1 Accumulation 10 nM SP1 V7A” value with pNL4-3 SP1-V7A was 30.2 (2) %. Besides, in the test with WT pNL4-3, the “% CA-SP1 Accumulation 10 nM NL4-3” value turned out to be 53.8%.
As to `C=C(C)[C@@H]1CC[C@]2(CCNCCCN3CCN(CCO)CC3)CC[C@]3(C)[C@H](CC[C@@H]4[C@@]5(C)CC[C@H](OC(=O)CC(C)(C)CC(=O)O)C(C)(C)[C@@H]5CC[C@]43C)[C@@H]12` [Compound 51d, (3β)-17-[2-[[3-[4-(2-Hydroxyethyl)piperazin-1-yl]propyl]amino]ethyl]-28-norlup-20(29)-en-3-ol, 3-(Hydrogen 3,3-Dimethylpentanedioate)], the “% CA-SP1 Accumulation 100 nM SP1 V7A” value with pNL4-3 SP1-V7A was 20.4 (3) %. Moreover, in the test on WT pNL4-3, the “% CA-SP1 Accumulation 100 nM NL4-3” value is recorded as 71.6 (3) %.
In the case of `C=C(C)[C@@H]1CC[C@]2(CNCCCN3CCCC3)CC[C@]3(C)[C@H](CC[C@@H]4[C@@]5(C)CC[C@H](OC(=O)CC(C)(C)C(=O)O)C(C)(C)[C@@H]5CC[C@]43C)[C@@H]12` [Compound 51v, (3β)-28-[[3-(1-Pyrrolidinyl)propyl]amino]lup-20(29)-en-3-ol, 3-(1-Hydrogen 2,2-Dimethylbutanedioate) Sulfate], in the test on pNL4-3 SP1-V7A, the “% CA-SP1 Accumulation 10 nM SP1 V7A” value is listed as 10.3% and the “% CA-SP1 Accumulation 100 nM SP1 V7A” value stood at 26.9%. In addition, in the test on WT pNL4-3, the “% CA-SP1 Accumulation 10 nM NL4-3” value is listed as 21.9% and the “% CA-SP1 Accumulation 100 nM NL4-3” value was 57.2%.
With `C=C(C)[C@@H]1CC[C@]2(CCNCCC(=O)N3CCN(C)CC3)CC[C@]3(C)[C@H](CC[C@@H]4[C@@]5(C)CC[C@H](OC(=O)CC(C)(C)CC(=O)O)C(C)(C)[C@@H]5CC[C@]43C)[C@@H]12` [Compound 51b, (3β)-17-[2-[[3-(4-Methylpiperazin-1-yl)-3-oxopropyl]amino]ethyl]-28-norlup-20(29)-en-3-ol, 3-(Hydrogen 3,3-Dimethylpentanedioate)], the “% CA-SP1 Accumulation 100 nM SP1 V7A” value in the test on pNL4-3 SP1-V7A is recorded as 21.0%. In the test with WT pNL4-3, the “% CA-SP1 Accumulation 100 nM NL4-3” value is given as 58.0%.
Consider `C=C(C)[C@@H]1CC[C@]2(CCCNCCN3CCN(Cc4ccccc4)CC3)CC[C@]3(C)[C@H](CC[C@@H]4[C@@]5(C)CC[C@H](OC(=O)CC(C)(C)C(=O)O)C(C)(C)[C@@H]5CC[C@]43C)[C@@H]12` [Compound 51bb, (3β)-17-[3-[[2-[4-(Phenylmethyl)piperazin-1-yl]ethyl]amino]propyl]-28-norlup-20(29)-en-3-ol, 3-(1-Hydrogen 2,2-Dimethylbutanedioate) Sesquisulfate], for which, in the test with pNL4-3 SP1-V7A, the “% CA-SP1 Accumulation 10 nM SP1 V7A” value was 4.8% and the “% CA-SP1 Accumulation 100 nM SP1 V7A” value came out at 3.7%. Moreover, in the test with WT pNL4-3, the “% CA-SP1 Accumulation 10 nM NL4-3” value was determined as 5.8% and the “% CA-SP1 Accumulation 100 nM NL4-3” value is recorded as 8.4%.
Take `C=C(C)[C@@H]1CC[C@]2(CCCNCCN3CCN(S(C)(=O)=O)CC3)CC[C@]3(C)[C@H](CC[C@@H]4[C@@]5(C)CC[C@H](OC(=O)CC(C)(C)C(=O)O)C(C)(C)[C@@H]5CC[C@]43C)[C@@H]12` [Compound 51cc, (3β)-17-[3-[[2-[4-(Methylsulfonyl)piperazin-1-yl]ethyl]amino]propyl]-28-norlup-20(29)-en-3-ol, 3-(1-Hydrogen 2,2-Dimethylbutanedioate) Sesquisulfate]: in the test with pNL4-3 SP1-V7A, the “% CA-SP1 Accumulation 10 nM SP1 V7A” value was 12.5% and the “% CA-SP1 Accumulation 100 nM SP1 V7A” value came out at 19.3%. Moreover, in the test with WT pNL4-3, the “% CA-SP1 Accumulation 10 nM NL4-3” value was 26.0% and the “% CA-SP1 Accumulation 100 nM NL4-3” value was determined as 58.4%.
`C=C(C)[C@@H]1CC[C@]2(CCNCCN3CCN(c4ccccc4)CC3)CC[C@]3(C)[C@H](CC[C@@H]4[C@@]5(C)CC[C@H](OC(=O)CC(C)(C)C(=O)O)C(C)(C)[C@@H]5CC[C@]43C)[C@@H]12` [Compound 51p, (3β)-17-[2-[[2-(4-Phenylpiperazin-1-yl)ethyl]amino]ethyl]-28-norlup-20(29)-en-3-ol, 3-(1-Hydrogen 2,2-Dimethylbutanedioate)]: in the test on pNL4-3 SP1-V7A, the “% CA-SP1 Accumulation 10 nM SP1 V7A” value was determined as 22.5%. Besides, the “% CA-SP1 Accumulation 10 nM NL4-3” value with WT pNL4-3 turned out to be 60.0%.
Regarding `C=C(C)[C@@H]1CC[C@]2(CCNCCCN3CCN(CCOC)CC3)CC[C@]3(C)[C@H](CC[C@@H]4[C@@]5(C)CC[C@H](OC(=O)CC(C)(C)CC(=O)O)C(C)(C)[C@@H]5CC[C@]43C)[C@@H]12` [Compound 51e, (3β)-17-[2-[[3-[4-(2-Methoxyethyl)piperazin-1-yl]propyl]amino]ethyl]-28-norlup-20(29)-en-3-ol, 3-(Hydrogen 3,3-Dimethylpentanedioate)], the “% CA-SP1 Accumulation 100 nM SP1 V7A” value in the test on pNL4-3 SP1-V7A was 23.1 (3) %. Also, the “% CA-SP1 Accumulation 100 nM NL4-3” value in the test with WT pNL4-3 is 70.4 (3) %.
Turning to `C=C(C)[C@@H]1CC[C@]2(CNCCN3CCN(S(C)(=O)=O)CC3)CC[C@]3(C)[C@H](CC[C@@H]4[C@@]5(C)CC[C@H](OC(=O)CC(C)(C)C(=O)O)C(C)(C)[C@@H]5CC[C@]43C)[C@@H]12` [Compound 51x, (3β)-28-[[2-[4-(Methylsulfonyl)piperazin-1-yl]ethyl]amino]lup-20(29)-en-3-ol, 3-(1-Hydrogen 2,2-Dimethylbutanedioate) Sulfate], in the test with pNL4-3 SP1-V7A, the “% CA-SP1 Accumulation 10 nM SP1 V7A” value came out at 31.0% and the “% CA-SP1 Accumulation 100 nM SP1 V7A” value was found to be 26.9%. In the test with WT pNL4-3, the “% CA-SP1 Accumulation 10 nM NL4-3” value stood at 56.6% and the “% CA-SP1 Accumulation 100 nM NL4-3” value was 74.3%.
`C=C(C)[C@@H]1CC[C@]2(CCNCCN3CCN(CC4CCCCC4)CC3)CC[C@]3(C)[C@H](CC[C@@H]4[C@@]5(C)CC[C@H](OC(=O)CC(C)(C)C(=O)O)C(C)(C)[C@@H]5CC[C@]43C)[C@@H]12` [Compound 51s, (3β)-17-[2-[[2-[4-(Cyclohexylmethyl)piperazin-1-yl]ethyl]amino]ethyl]-28-norlup-20(29)-en-3-ol, 3-(1-Hydrogen 2,2-Dimethylbutanedioate)]: in the test with pNL4-3 SP1-V7A, the “% CA-SP1 Accumulation 10 nM SP1 V7A” value is given as 14.5%. Further, the “% CA-SP1 Accumulation 10 nM NL4-3” value in the test on WT pNL4-3 is given as 48.7%.
`C=C(C)[C@@H]1CC[C@]2(CCCNCCCN3CCCC3)CC[C@]3(C)[C@H](CC[C@@H]4[C@@]5(C)CC[C@H](OC(=O)CC(C)(C)C(=O)O)C(C)(C)[C@@H]5CC[C@]43C)[C@@H]12` [Compound 51aa, (3β)-17-[3-[[3-(1-Pyrrolidinyl)propyl]amino]propyl]-28-norlup-20(29)-en-3-ol, 3-(1-Hydrogen 2,2-Dimethylbutanedioate) Sulfate]: in the test with pNL4-3 SP1-V7A, the “% CA-SP1 Accumulation 10 nM SP1 V7A” value is recorded as 5.3% and the “% CA-SP1 Accumulation 100 nM SP1 V7A” value turned out to be 14.4%. For the same compound, in the test on WT pNL4-3, the “% CA-SP1 Accumulation 10 nM NL4-3” value amounted to 12.5% and the “% CA-SP1 Accumulation 100 nM NL4-3” value worked out at 45.2%.
